Experimental data: ChEMBL document CHEMBL3352542, “Synthesis, biological evaluation and molecular modeling study of 2-(1,3,4-thiadiazolyl-thio and 4-methyl-thiazolyl-thio)-quinazolin-4-ones as a new class of DHFR inhibitors” (Bioorg Med Chem Lett, 2014)
Activity calls are given as the source filed them. No cut-off for these calls is given here.

Columns and labels:
COLO 205 = assay: Growth inhibition of human COLO205 cells at 10 uM after 48 hrs; format: functional
HOP-92 = assay: Growth inhibition of human HOP92 cells at 10 uM after 48 hrs; format: functional
RXF 393 = assay: Growth inhibition of human RXF393 cells at 10 uM after 48 hrs; format: functional
Escherichia coli = assay: Antimicrobial activity against Escherichia coli assessed as inhibition zone at 200 ug/disk after 24 hrs by disc-diffusion method; format: functional; settings: read-out: IZ
MOLT-4 = assay: Growth inhibition of human MOLT4 cells at 10 uM after 48 hrs; format: functional
U-251 = assay: Growth inhibition of human U251 cells at 10 uM after 48 hrs; format: functional
HL-60(TB) = assay: Growth inhibition of human HL-60(TB) cells at 10 uM after 48 hrs; format: functional
Malme-3M = assay: Growth inhibition of human MALME-3M cells at 10 uM after 48 hrs; format: functional
UACC-257 = assay: Growth inhibition of human UACC257 cells at 10 uM after 48 hrs; format: functional
SR = assay: Growth inhibition of human SR cells at 10 uM after 48 hrs; format: functional
RPMI-8226 = assay: Growth inhibition of human RPMI8226 cells at 10 uM after 48 hrs; format: functional
T47D = assay: Growth inhibition of human T47D cells at 10 uM after 48 hrs; format: functional
HCT-15 = assay: Growth inhibition of human HCT15 cells at 10 uM after 48 hrs; format: functional
Hs-578T = assay: Growth inhibition of human Hs 578T cells at 10 uM after 48 hrs; format: functional
Pseudomonas aeruginosa = assay: Antimicrobial activity against Pseudomonas aeruginosa assessed as inhibition zone at 200 ug/disk after 24 hrs by disc-diffusion method; format: functional; settings: read-out: IZ
KM12 = assay: Growth inhibition of human KM12 cells at 10 uM after 48 hrs; format: functional
SNB-19 = assay: Growth inhibition of human SNB19 cells at 10 uM after 48 hrs; format: functional
HCT-116 = assay: Growth inhibition of human HCT116 cells at 10 uM after 48 hrs; format: functional
HT-29 = assay: Growth inhibition of human HT-29 cells at 10 uM after 48 hrs; format: functional
NCI-H460 = assay: Growth inhibition of human NCI-H460 cells at 10 uM after 48 hrs; format: functional
OVCAR-5 = assay: Growth inhibition of human OVCAR5 cells at 10 uM after 48 hrs; format: functional
PC-3 = assay: Growth inhibition of human PC3 cells at 10 uM after 48 hrs; format: functional
Dihydrofolate reductase = molecular target: T1, Dihydrofolate reductase (Bos taurus, UniProt P00376); assay: Inhibition of bovine liver DHFR
T1 sequence (P00376 whole entry): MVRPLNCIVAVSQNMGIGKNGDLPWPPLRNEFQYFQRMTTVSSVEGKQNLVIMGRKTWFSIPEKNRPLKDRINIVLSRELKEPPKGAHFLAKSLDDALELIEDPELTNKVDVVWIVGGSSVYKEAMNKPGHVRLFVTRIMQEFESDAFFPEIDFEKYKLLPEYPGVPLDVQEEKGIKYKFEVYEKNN

Bacillus subtilis = assay: Antimicrobial activity against Bacillus subtilis assessed as inhibition zone at 200 ug/disk after 24 hrs by disc-diffusion method; format: functional; settings: read-out: IZ
NCI-H23 = assay: Growth inhibition of human NCI-H23 cells at 10 uM after 48 hrs; format: functional
BT-549 = assay: Growth inhibition of human BT549 cells at 10 uM after 48 hrs; format: functional
HCC 2998 = assay: Growth inhibition of human HCC2998 cells at 10 uM after 48 hrs; format: functional
CAKI-1 = assay: Growth inhibition of human CAKI-1 cells at 10 uM after 48 hrs; format: functional
MDA-MB-435 = assay: Growth inhibition of human MDA-MB-435 cells at 10 uM after 48 hrs; format: functional
Staphylococcus aureus = assay: Antimicrobial activity against Staphylococcus aureus assessed as inhibition zone at 200 ug/disk after 24 hrs by disc-diffusion method; format: functional; settings: read-out: IZ
TK-10 = assay: Growth inhibition of human TK10 cells at 10 uM after 48 hrs; format: functional
OVCAR-4 = assay: Growth inhibition of human OVCAR4 cells at 10 uM after 48 hrs; format: functional
CCRF-CEM = assay: Growth inhibition of human CCRF-CEM cells at 10 uM after 48 hrs; format: functional
UACC-62 = assay: Growth inhibition of human UACC62 cells at 10 uM after 48 hrs; format: functional
SW-620 = assay: Growth inhibition of human SW620 cells at 10 uM after 48 hrs; format: functional
OVCAR-8 = assay: Growth inhibition of human OVCAR8 cells at 10 uM after 48 hrs; format: functional
A498 = assay: Growth inhibition of human A498 cells at 10 uM after 48 hrs; format: functional
Candida albicans = assay: Antimicrobial activity against Candida albicans assessed as inhibition zone at 200 ug/disk after 24 hrs by disc-diffusion method; format: functional; settings: read-out: IZ
SF-539 = assay: Growth inhibition of human SF539 cells at 10 uM after 48 hrs; format: functional
K562 = assay: Growth inhibition of human K562 cells at 10 uM after 48 hrs; format: functional
786-0 = assay: Growth inhibition of human 786-0 cells at 10 uM after 48 hrs; format: functional
SF-268 = assay: Growth inhibition of human SF268 cells at 10 uM after 48 hrs; format: functional
UO-31 = assay: Growth inhibition of human UO31 cells at 10 uM after 48 hrs; format: functional
SNB-75 = assay: Growth inhibition of human SNB75 cells at 10 uM after 48 hrs; format: functional
MCF7 = assay: Growth inhibition of human MCF7 cells at 10 uM after 48 hrs; format: functional
NCI/ADR-RES = assay: Growth inhibition of human NCI-ADR-RES cells at 10 uM after 48 hrs; format: functional
SF-295 = assay: Growth inhibition of human SF295 cells at 10 uM after 48 hrs; format: functional
M14 = assay: Growth inhibition of human M14 cells at 10 uM after 48 hrs; format: functional
SK-MEL-5 = assay: Growth inhibition of human SK-MEL-5 cells at 10 uM after 48 hrs; format: functional
NCI-H522 = assay: Growth inhibition of human NCI-H522 cells at 10 uM after 48 hrs; format: functional
MDA-MB-468 = assay: Growth inhibition of human MDA-MB-468 cells at 10 uM after 48 hrs; format: functional
SN12C = assay: Growth inhibition of human SN12C cells at 10 uM after 48 hrs; format: functional
LOX IMVI = assay: Growth inhibition of human LOXIMVI cells at 10 uM after 48 hrs; format: functional
MDA-MB-231 = assay: Growth inhibition of human MDA-MB-231 cells at 10 uM after 48 hrs; format: functional
ACHN = assay: Growth inhibition of human ACHN cells at 10 uM after 48 hrs; format: functional
NCI-H226 = assay: Growth inhibition of human NCI-H226 cells at 10 uM after 48 hrs; format: functional
A549 = assay: Growth inhibition of human A549 cells at 10 uM after 48 hrs; format: functional
OVCAR-3 = assay: Growth inhibition of human OVCAR3 cells at 10 uM after 48 hrs; format: functional

`Cc1nc(N)sc1Sc1nc2ccc(Cl)cc2c(=O)n1-c1ccc(Cl)cc1` was tested, and the “growth inhibition (GI)” value (COLO 205) was “inactive”, the “growth inhibition (GI)” value (HOP-92) was “inactive” and the “growth inhibition (GI)” value (RXF 393) was “inactive”. The zone of inhibition at 200 µg/disc (Escherichia coli) was 8 mm, the “growth inhibition (GI)” value (MOLT-4) was “inactive” and the “growth inhibition (GI)” value (U-251) was “inactive”. For the same compound, the “growth inhibition (GI)” value (HL-60(TB)) was “inactive”, the “growth inhibition (GI)” value (Malme-3M) was “inactive” and the “growth inhibition (GI)” value (UACC-257) was “inactive”. For the same compound, the “growth inhibition (GI)” value (SR) was “inactive”, the “growth inhibition (GI)” value (RPMI-8226) was “inactive” and the “growth inhibition (GI)” value (T47D) was “inactive”. The “growth inhibition (GI)” value (HCT-15) was “inactive”, the “growth inhibition (GI)” value (Hs-578T) was “inactive” and the zone of inhibition at 200 µg/disc (Pseudomonas aeruginosa) was 8 mm. For the same compound, the “growth inhibition (GI)” value (KM12) was “inactive”, the “growth inhibition (GI)” value (SNB-19) was “inactive” and the “growth inhibition (GI)” value (HCT-116) was “inactive”. The “growth inhibition (GI)” value (HT-29) was “inactive”, the “growth inhibition (GI)” value (NCI-H460) was “inactive” and the “growth inhibition (GI)” value (OVCAR-5) was “inactive”. The “growth inhibition (GI)” value (PC-3) was “inactive”, the IC50 (Dihydrofolate reductase) was 8 µM and the zone of inhibition at 200 µg/disc (Bacillus subtilis) was 8 mm. For the same compound, the “growth inhibition (GI)” value (NCI-H23) was “inactive”, the “growth inhibition (GI)” value (BT-549) was “inactive” and the “growth inhibition (GI)” value (HCC 2998) was “inactive”. The “growth inhibition (GI)” value (CAKI-1) was “inactive”, the “growth inhibition (GI)” value (MDA-MB-435) was “inactive” and the zone of inhibition at 200 µg/disc (Staphylococcus aureus) was 8 mm. For the same compound, the “growth inhibition (GI)” value (TK-10) was “inactive”, the “growth inhibition (GI)” value (OVCAR-4) was “inactive” and the “growth inhibition (GI)” value (CCRF-CEM) was “inactive”. For the same compound, the “growth inhibition (GI)” value (UACC-62) was “inactive”, the “growth inhibition (GI)” value (SW-620) was “inactive” and the “growth inhibition (GI)” value (OVCAR-8) was “inactive”. The “growth inhibition (GI)” value (A498) was “inactive”, the zone of inhibition at 200 µg/disc (Candida albicans) was 8 mm and the “growth inhibition (GI)” value (SF-539) was “inactive”. The “growth inhibition (GI)” value (K562) was “inactive”, the “growth inhibition (GI)” value (786-0) was “inactive” and the “growth inhibition (GI)” value (SF-268) was “inactive”. For the same compound, the “growth inhibition (GI)” value (UO-31) was “inactive”, the “growth inhibition (GI)” value (SNB-75) was “inactive” and the “growth inhibition (GI)” value (MCF7) was “inactive”. For the same compound, the “growth inhibition (GI)” value (NCI/ADR-RES) was “inactive”, the “growth inhibition (GI)” value (SF-295) was “inactive” and the “growth inhibition (GI)” value (M14) was “inactive”. For the same compound, the “growth inhibition (GI)” value (SK-MEL-5) was “inactive”, the “growth inhibition (GI)” value (NCI-H522) was “inactive” and the “growth inhibition (GI)” value (MDA-MB-468) was “inactive”. For the same compound, the “growth inhibition (GI)” value (SN12C) was “inactive”, the “growth inhibition (GI)” value (LOX IMVI) was “inactive” and the “growth inhibition (GI)” value (MDA-MB-231) was “inactive”. For the same compound, the “growth inhibition (GI)” value (ACHN) was “inactive”, the “growth inhibition (GI)” value (NCI-H226) was “inactive” and the “growth inhibition (GI)” value (A549) was “inactive”. The “growth inhibition (GI)” value (OVCAR-3) was “inactive”.
